According to patent US11807634B2, “Cyclopropyl dihydroquinoline sulfonamide compounds” (AMGEN INC., priority 2020, dated 2023):

system: CYP3A4; assay: Human CYP 3A4 induction assay (mRNA, cryopreserved human hepatocytes); assay type: in vitro ADME; settings: human hepatocytes, 10 uM test compound, 72 hours, mRNA, percent of control (rifampin positive control)
Procedure: Human CYP 3A4 Induction Assay
Cryopreserved human hepatocytes were seeded in 96-well collagen coated plates at 70,000 cells per well in hepatocyte plating media (HPM, final concentrations: 1× Dulbecco's Modified Eagle's Medium, 0.1 μM dexamethasone, 10% fetal bovine serum, 1× ITS, 1×PSG) followed by incubation at 37° C. under 5% CO2 and 90% relative humidity for 2 days to allow hepatocytes to form a confluent layer. On Day 3, hepatocytes were treated with either test compound or rifampin (20 μM, positive control for CYP3A induction) prepared in hepatocyte incubation media ((HIM, final concentrations: 1× William's Medium E, 0.1 μM dexamethasone, 1×ITS, 1×PSG). Treatment was performed for 72 hours with either 2 concentrations (2 μM or 10 μM) or a range of concentrations (0.001 μM to 100 μM) of the test compound to obtain full dose-response curve. Fresh media containing the relevant concentrations of the test compound was replaced every day until the samples were processed. After 72 hours of incubation, samples were processed for mRNA analysis using bDNA technology using manufacturer's instructions (Affymetrix, Fremont, Calif.). Cell viability was tested at the end of the experiment using MTT assay kit (Roche Diagnostics, Basel, Switzerland). Data was analyzed and presented as percent of control (POC) and Emax and EC50 obtained when appropriate according to guidance from Center for Drug Evaluation and Research (CDER), 2006, Guidance for Industry, Drug Interaction Studies—Study Design, Data Analysis, and Implications for Dosing and Labeling.
Cryopreserved human hepatocytes were seeded in 96-well collagen coated plates at 70,000 cells per well in hepatocyte plating media (HPM, final concentrations: 1× Dulbecco's Modified Eagle's Medium, 0.1 μM dexamethasone, 10% fetal bovine serum, 1×ITS, 1×PSG) followed by incubation at 37° C. under 5% CO2 and 90% relative humidity for 2 days to allow hepatocytes to form a confluent layer. On Day 3, hepatocytes were treated with either test compound or rifampin (20 μM, positive control for CYP3A induction) prepared in hepatocyte incubation media ((HIM, final concentrations: 1× William's Medium E, 0.1 μM dexamethasone, 1×ITS, 1×PSG). Treatment was performed for 72 hours with either 2 concentrations (2 μM or 10 μM) or a range of concentrations (0.001 μM to 100 μM) of the test compound to obtain full dose-response curve. Fresh media containing the relevant concentrations of the test compound was replaced every day until the samples were processed. After 72 hours of incubation, samples were processed for mRNA analysis using bDNA technology using manufacturer's instructions (Affymetrix, Fremont, Calif.). Cell viability was tested at the end of the experiment using MTT assay kit (Roche Diagnostics, Basel, Switzerland). Data was analyzed and presented as percent of control (POC) and Emax and EC50 obtained when appropriate, as described in Halladay, J. et al, 2012, An “all-inclusive” 96-well cytochrome P450 induction method: Measuring enzyme activity, mRNA levels, protein levels, and cytotoxicity from one well using cryopreserved human hepatocytes, Pharmacological and Toxicological Methods, 66:270-275.
The cytochrome P450 (CYP) is a well-known superfamily of enzymes that are responsible for the oxidative and reductive metabolic transformation of medications used in clinical practice. In addition, the CYP enzymes are commonly associated with causing many clinically relevant drug-drug interactions. Of the CYP enzymes, CYP3A4 is not only the most prevalent CYP enzyme in the liver and intestine, but is responsible for metabolism and elimination of approximately 50% of marketed drugs. In addition, CYP3A4 activity can be induced (or increased) or inhibited (decreased) in response to administration of certain drugs, thereby affecting concentrations of their own or certain concomitant drugs present in the body. […]

Compared with `COc1cc([C@H]2C[C@@H]2C(F)(F)F)c(F)cc1-n1c(=O)ccc2cc(S(=O)(=O)Nc3ccon3)ccc21` (atropisomer, axis not shown; (P)) [Example 4, (P)-1-(5-fluoro-2-methoxy-4-((1S,2S)-2-(trifluoromethyl)cyclopropyl)phenyl)-N-(isoxazol-3-yl)-2-oxo-1,2-dihydroquinoline-6-sulfonamide], `COc1cc([C@@H]2C[C@H]2C(F)(F)F)c(F)cc1-n1c(=O)ccc2cc(S(=O)(=O)Nc3ccon3)ccc21` (atropisomer, axis not shown; (P)) [Example 5, (P)-1-(5-fluoro-2-methoxy-4-((1R,2R)-2-(trifluoromethyl)cyclopropyl)phenyl)-N-(isoxazol-3-yl)-2-oxo-1,2-dihydroquinoline-6-sulfonamide] is higher in “CYP3A4 mRNA Induct Hu 10 uM POC” value: 15.9% for the first, 41.96% for the second.

Compared with `COc1cc([C@@H]2C[C@H]2C)c(F)cc1-n1c(=O)ccc2cc(S(=O)(=O)Nc3ccon3)ccc21` (atropisomer, axis not shown; (P)) [Example 6, (P)-1-(5-fluoro-2-methoxy-4-((1R,2R)-2-methylcyclopropyl)phenyl)-N-(isoxazol-3-yl)-2-oxo-1,2-dihydroquinoline-6-sulfonamide], `COc1cc([C@H]2C[C@@H]2C)c(F)cc1-n1c(=O)ccc2cc(S(=O)(=O)Nc3ccon3)ccc21` (atropisomer, axis not shown; (P)) [Example 7, (P)-1-(5-fluoro-2-methoxy-4-((1S,2S)-2-methylcyclopropyl)phenyl)-N-(isoxazol-3-yl)-2-oxo-1,2-dihydroquinoline-6-sulfonamide] is higher in “CYP3A4 mRNA Induct Hu 10 uM POC” value: 25.49% for the first, 41.2% for the second.

First: COc1cc([C@@H]2C[C@H]2c2ccccc2)c(F)cc1-n1c(=O)ccc2cc(S(=O)(=O)Nc3ccon3)ccc21 (atropisomer, axis not shown; (P)) [Example 8, (P)-1-(5-fluoro-2-methoxy-4-((1R,2R)-2-phenylcyclopropyl)phenyl)-N-(isoxazol-3-yl)-2-oxo-1,2-dihydroquinoline-6-sulfonamide]
Second: COc1cc([C@H]2C[C@@H]2c2ccccc2)c(F)cc1-n1c(=O)ccc2cc(S(=O)(=O)Nc3ccon3)ccc21 (atropisomer, axis not shown; (P)) [Example 9, (P)-1-(5-fluoro-2-methoxy-4-((1S,2S)-2-phenylcyclopropyl)phenyl)-N-(isoxazol-3-yl)-2-oxo-1,2-dihydroquinoline-6-sulfonamide]
The “CYP3A4 mRNA Induct Hu 10 uM POC” value of the first is lower: 27.54% for the first, 37.165% for the second.

First: COc1cc([C@H]2C[C@@H]2C(F)(F)F)c(Cl)cc1-n1c(=O)ccc2cc(S(=O)(=O)Nc3ncccn3)ccc21 (atropisomer, axis not shown; (P)) [Example 12, (P)-1-(5-chloro-2-methoxy-4-((1S,2S)-2-(trifluoromethyl)cyclopropyl)phenyl)-2-oxo-N-(pyrimidin-2-yl)-1,2-dihydroquinoline-6-sulfonamide]
Second: COc1cc([C@@H]2C[C@H]2C(F)(F)F)c(Cl)cc1-n1c(=O)ccc2cc(S(=O)(=O)Nc3ncccn3)ccc21 (atropisomer, axis not shown; (P)) [Example 13, (P)-1-(5-chloro-2-methoxy-4-((1R,2R)-2-(trifluoromethyl)cyclopropyl)phenyl)-2-oxo-N-(pyrimidin-2-yl)-1,2-dihydroquinoline-6-sulfonamide]
The “CYP3A4 mRNA Induct Hu 10 uM POC” value of the first is lower: 29.85% for the first, 92.47% for the second.

Going from `COc1cc([C@@H]2C[C@H]2C(F)(F)F)c(F)cc1-n1c(=O)ccc2cc(S(=O)(=O)Nc3cccnn3)ccc21` (atropisomer, axis not shown; (P)) [Example 16, (P)-1-(5-fluoro-2-methoxy-4-((1R,2R)-2-(trifluoromethyl)cyclopropyl)phenyl)-2-oxo-N-(pyridazin-3-yl)-1,2-dihydroquinoline-6-sulfonamide] to `COc1cc([C@H]2C[C@@H]2C(F)(F)F)c(F)cc1-n1c(=O)ccc2cc(S(=O)(=O)Nc3cccnn3)ccc21` (atropisomer, axis not shown; (P)) [Example 17, (P)-1-(5-fluoro-2-methoxy-4-((1S,2S)-2-(trifluoromethyl)cyclopropyl)phenyl)-2-oxo-N-(pyridazin-3-yl)-1,2-dihydroquinoline-6-sulfonamide], the “CYP3A4 mRNA Induct Hu 10 uM POC” value rises from 27.11% to 37.04%.

First: COc1cc([C@@H]2C[C@H]2C(F)(F)F)c(Cl)cc1-n1c(=O)ccc2cc(S(=O)(=O)Nc3ccon3)ccc21 (atropisomer, axis not shown; (P)) [Example 18, (P)-1-(5-chloro-2-methoxy-4-((1R,2R)-2-(trifluoromethyl)cyclopropyl)phenyl)-N-(isoxazol-3-yl)-2-oxo-1,2-dihydroquinoline-6-sulfonamide]
Second: COc1cc([C@H]2C[C@@H]2C(F)(F)F)c(Cl)cc1-n1c(=O)ccc2cc(S(=O)(=O)Nc3ccon3)ccc21 (atropisomer, axis not shown; (P)) [Example 19, (P)-1-(5-chloro-2-methoxy-4-((1S,2S)-2-(trifluoromethyl)cyclopropyl)phenyl)-N-(isoxazol-3-yl)-2-oxo-1,2-dihydroquinoline-6-sulfonamide]
The “CYP3A4 mRNA Induct Hu 10 uM POC” value of the first is lower: 9.92% for the first, 85.5% for the second.

Compared with `COc1cc([C@@H]2C[C@H]2C(F)(F)F)c(F)cc1-n1c(=O)ccc2cc(S(=O)(=O)Nc3ncccn3)ccc21` (atropisomer, axis not shown; (P)) [Example 20, (P)-1-(5-fluoro-2-methoxy-4-((1R,2R)-2-(trifluoromethyl)cyclopropyl)phenyl)-2-oxo-N-(pyrimidin-2-yl)-1,2-dihydroquinoline-6-sulfonamide], `COc1cc([C@H]2C[C@@H]2C(F)(F)F)c(F)cc1-n1c(=O)ccc2cc(S(=O)(=O)Nc3ncccn3)ccc21` (atropisomer, axis not shown; (P)) [Example 21, (P)-1-(5-fluoro-2-methoxy-4-((1S,2S)-2-(trifluoromethyl)cyclopropyl)phenyl)-2-oxo-N-(pyrimidin-2-yl)-1,2-dihydroquinoline-6-sulfonamide] is lower in “CYP3A4 mRNA Induct Hu 10 uM POC” value: 67.47% for the first, 34.81% for the second.

First: COc1cc(C2(C(F)(F)F)CC2)c(F)cc1-n1c(=O)ccc2cc(S(=O)(=O)Nc3ncccn3)ccc21 (atropisomer, axis not shown; (P)) [Example 23, (P)-1-(5-fluoro-2-methoxy-4-(1-(trifluoromethyl)cyclopropyl)phenyl)-2-oxo-N-(pyrimidin-2-yl)-1,2-dihydroquinoline-6-sulfonamide]
Second: COc1cc(C2(C(F)(F)F)CC2)c(Cl)cc1-n1c(=O)ccc2cc(S(=O)(=O)Nc3ncccn3)ccc21 (atropisomer, axis not shown; (P)) [Example 25, (P)-1-(5-chloro-2-methoxy-4-(1-(trifluoromethyl)cyclopropyl)phenyl)-2-oxo-N-(pyrimidin-2-yl)-1,2-dihydroquinoline-6-sulfonamide]
The “CYP3A4 mRNA Induct Hu 10 uM POC” value of the first is lower: 85.95% for the first, 88.68% for the second.

Compared with `COc1cc(C2(C(F)(F)F)CC2)c(Cl)cc1-n1c(=O)ccc2cc(S(=O)(=O)Nc3ccon3)ccc21` (atropisomer, axis not shown; (P)) [Example 24, (P)-1-(5-chloro-2-methoxy-4-(1-(trifluoromethyl)cyclopropyl)phenyl)-N-(isoxazol-3-yl)-2-oxo-1,2-dihydroquinoline-6-sulfonamide], `COc1cc([C@@H]2C[C@H]2C(F)(F)F)c(C)cc1-n1c(=O)ccc2cc(S(=O)(=O)Nc3ncccn3)ccc21` (atropisomer, axis not shown; (P)) [Example 28, (P)-1-(2-methoxy-5-methyl-4-((1R,2R)-2-(trifluoromethyl)cyclopropyl)phenyl)-2-oxo-N-(pyrimidin-2-yl)-1,2-dihydroquinoline-6-sulfonamide] is lower in “CYP3A4 mRNA Induct Hu 10 uM POC” value: 100.7% for the first, 23.36% for the second.
